Experimental data as given in US20080118494A1, “Compositions For Detection Of Latent Hiv Reactivation And Methods Of Using The Same” (priority 2004, published 2008).

System: latent HIV-1 infection in human PBMCs
Assay: Reactivation of latent HIV-1 in in vitro infected, EGFP-negative sorted human PBMCs
Type: cell-based
Details: representative donor, 24 h post stimulation, untreated background 0.23%
Description: PBMCs from three different donors were infected with HIV-1 NLENG1-IRES and on day three post infection were treated with indinavir to inhibit de novo infection. On day seven following infection, HIV-1 expressing EGFP^+ cells were removed from the cultures using fluorescence activated cell sorting. (A) Following the sorting procedure, the EGFP-negative cells were cultured in supplemented RPMI 1640 to determine levels of spontaneous reactivation (Control), stimulated with anti-CD3 antibody clone UCHT1 (CD3), the costimulatory anti-CD28 antibody clone CD28.2 (cCD28) and with a combination of these two antibodies (cCD28/CD3). […] Numbers indicate the percentage of EGFP positive cells and the mean channel fluorescence intensity of the EGFP-positive cell population. […]
In vitro generation and analysis of HIV-1 latency in PBMCs. […] In the absence of IL-2, the cells were cultured for seven days following infection and then subjected to fluorescence activated cell sorting (FACS) to remove EGFP positive, HIV-1 expressing cells. The EGFP negative cell fraction was then activated with the indicated stimuli and reactivation of latent HIV-1 expression was measured 24 h post stimulation by determining EGFP fluorescence using FACS analysis. […]

SMILES: CCCCCCCCCCCCCC(=O)O[C@@H]1[C@@H](C)[C@@]2(O)[C@@H](C=C(CO)C[C@]3(O)C(=O)C(C)=C[C@@H]23)[C@@H]2C(C)(C)[C@]12OC(C)=O [PMA, 13-phorbol-12-myristate acetate]
- HIV-1 reactivation as percentage of EGFP+ cells: 0.60%
